We go through two compounds from patent US20050171084A1, “Methods of treatment with lxr modulators” (priority 2002, published 2005).

Assay [1] deals with Hippocampal neurons. Kind of assay: Neurite outgrowth in hippocampal neurons. The class given is cell-based, rat. The following applies: HC neurons, 48 hours, SEM in parentheses. How it is done: Hippocampal neurons: The hippocampi of gestational day 18 rat embryos were dissected out, incubated in trypsin (0.08%, 30 min at 37° C.) and dissociated mechanically (16). Hippocampal cells were resuspended in neurobasal medium supplemented with B27, anti-oxidants, 1 mM glutamine, 25 μM glutamate, 1 mM pyruvate. For outgrowth assays, cells were plated at a density of 3000 cells/well into 96 well dishes that had previously been coated with poly-D-lysine followed by 10% FCS and cultured for 48 hours.
(§1) The test compound was solubilised in DMSO and added to culture medium at time of cell plating at a dilution of 1:1000. Vehicle only (1:1000) was added to culture medium of untreated controls. Cells were fixed with 4% paraformaldehyde for 1 hour on ice, washed with PBS and stained using Coomassie. Assays were quantified using a KS300 image analysis system (Imaging Associates, UK). For each cell measured, the length from the edge of the cell to the end of the longest neurite was measured for 100 cells/well for each treatment in triplicate. All data are means and SEM pooled from three independent experiments. Results are expressed as a percentage of the length of neurites of cells treated with vehicle alone.

Assay [2] concerns Primary murine neuronal cultures. Kind of assay: Cholesterol efflux from neurons. The class given is cell-based, mouse. The following applies: standard deviation in parentheses. The protocol:
Primary murine neuronal cultures were prepared from C57 B1/6 mice essentially as described elsewhere (23). In brief, embryonic day 18 fetuses were collected by caesarian section, their brains removed and the cerebral cortices dissected from the rest of the brain. The tissue was rinsed during these steps several times in Ca^2+- and Mg^2+-free Hank's balanced salt solution (HBSS, containing 1 mM HEPES, GIBCO). After the meninges were removed with forceps, the tissue was minced and incubated for 15 minutes at 37° C. in 0.25% trypsin (Sigma) in HBSS. The tissue was then washed twice in HBSS and twice in neuronal plating media (minimal essential media [MEM] containing 3 mg/ml glucose, 5% fetal bovine serum [FBS; GibcoBRL], 5% horse serum [HS; GibcoBRL], 100 U/ml penicillin/100 μg/ml streptomycin [Irvine Scientific] and 2 mM glutamine [Irvine Scientific]) to which 10 μg/ml DNAseI (Sigma) had been added. […] The resulting cell pellet was resuspended in plating media, and trypan blue-excluding surviving cells were counted in a hemacytometer. […]
Cholesterol efflux assays were performed as described elsewhere (24) with some modifications. […] Two hundred microliters of the culture media supernatant and 200 μl of the cell extract were counted for tritium in 2 ml Packard Ultima Gold Scint. […] Efflux is expressed as percent of the total radiolabeled cholesterol pool present in the cultures.

The subject of assay [3] is NTW8 mouse microglial cells. Kind of assay: Secretion of pro-inflammatory mediators from LPS/IFN-γ stimulated microglia. The following applies: LPS/INF-γ stimulated microglia cells, 24 hrs. The assay is classed as cell-based. How it is done: NTW8 mouse microglial cells were plated into a 96 well plate at a density of 2×10^5 cells/well in DMEM supplemented with 10% FCS, 2 mM glutamine, 10 ng/ml basic fibroblast growth factor (R&D Systems) and N-2 (Gibco). Next day, cell were stimulated for 24 hrs in DMEM containing 10 ng/ml LPS (Sigma) and 20 U/ml IFN-γ (Gibco) in the presence of increasing concentrations of the test compound solubilised in DMSO. Media was removed after 24 hrs and analysed by ELISA for secreted IL-6, TNF-α (R&D systems) and PGE2 (Amersham) or via a Greiss assay for nitric oxide (NO) production. Cell viability was assessed by an MTT assay (Promega). All data are means and SEM pooled from two independent experiments. Results are expressed as a percentage of the LPS\INF-γ stimulated control cells treated with DMSO alone.

Assay [4] relates to Cortical neurons. Kind of assay: Neurite outgrowth in cortical neurons. The assay is classed as cell-based, rat. The following applies: CR neurons, 24 hours, standard error of triplicate wells in parentheses. The protocol:
Cortical neurons: Cortex from gestational day 18-20 rat embryos were collected in HBSS on ice. Cells were dissociated as described for hippocampal neurons. Cells were pelted (200 g, 5 mins and resuspended in medium as described for hippocampal cells. Cells were plated at 6000 cells/well and cultured for 24 hours.
as §1

With `O=C(O)Cc1cccc(OCCCN(Cc2cccc(C(F)(F)F)c2Cl)CC(c2ccccc2)c2ccccc2)c1` [Example 1, 2-(3-{3-[[2-Chloro-3-(trifluoromethyl)benzyl](2,2-diphenylethyl)amino]propoxy}-phenyl)acetic Acid], the “length of longest neurite, percentage of cells treated with vehicle alone” value in assay [1] (0.3 μm test compound) was 109 (6.25) %; in assay [1] (1.0 μm test compound), 113 (5.05) %; in assay [1] (3.0 μm test compound), 120 (7.75) %; in assay [1] (10.0 μm test compound), 147 (11.8) %; in assay [4] (0.3 μm test compound), 105 (1.79) %; in assay [4] (1.0 μm test compound) it was 110 (2.4) %. For the same compound, the figures for the “length of longest neurite, percentage of cells treated with vehicle alone” value in assay [4] (3.0 μm test compound) and in assay [4] (10.0 μm test compound) were 123.6 (6.6) % and 126.23 (2.5) %, respectively. Moreover, the “Cholesterol efflux as a percentage of total [3H] cholesterol” value in assay [2] is reported as 1.252 (0.179) %. In assay [3] (ELISA (FIG. 2)), the “secretion of IL-6” value is recorded as “inhibited”. The “secretion of PGE2” value in assay [3] (ELISA (FIG. 2)) is given as “inhibited”. Further, the “secretion of TNF-α” value in assay [3] (ELISA (FIG. 2)) is “inhibited”. Besides, in assay [3] (Greiss assay (FIG. 2)), the NO production result is recorded as “inhibited”.

On to `O=S(=O)(c1ccccc1)N(CC(F)(F)F)c1ccc(C(O)(C(F)(F)F)C(F)(F)F)cc1` [Example T0901317, N-(2,2,2-trifluoroethyl)-N-[4-(2,2,2-trifluoro-1-hydroxy-1-trifluoromethyl-ethyl)-phenyl]-benzenesulfonamide], for which the “Cholesterol efflux as a percentage of total [3H] cholesterol” value in assay [2] is recorded as 1.427 (0.031) %.
